# Reference: article doi:10.1101/2025.04.16.649181, “Design of peptide-based PAC1 antagonists combining molecular dynamics simulations and a biologically relevant cell-based assay” (bioRxiv, 2025)
# No end group written: not given here.
# Columns and labels:
# [1] = target: T1, PAC1 (endogenous, mainly PAC1null, SH-SY5Y) (Homo sapiens, UniProt P41586); experiment: CBS assay, antagonism of P38-induced cAMP in SY5Y_CBS cells; type: cell-based
# T1 construct: Neuroblastoma SH-SY5Y cells endogenously xpressing hPAC1 and engineered to express CBS; endogenous in cells
# T1 sequence (P41586 21-468): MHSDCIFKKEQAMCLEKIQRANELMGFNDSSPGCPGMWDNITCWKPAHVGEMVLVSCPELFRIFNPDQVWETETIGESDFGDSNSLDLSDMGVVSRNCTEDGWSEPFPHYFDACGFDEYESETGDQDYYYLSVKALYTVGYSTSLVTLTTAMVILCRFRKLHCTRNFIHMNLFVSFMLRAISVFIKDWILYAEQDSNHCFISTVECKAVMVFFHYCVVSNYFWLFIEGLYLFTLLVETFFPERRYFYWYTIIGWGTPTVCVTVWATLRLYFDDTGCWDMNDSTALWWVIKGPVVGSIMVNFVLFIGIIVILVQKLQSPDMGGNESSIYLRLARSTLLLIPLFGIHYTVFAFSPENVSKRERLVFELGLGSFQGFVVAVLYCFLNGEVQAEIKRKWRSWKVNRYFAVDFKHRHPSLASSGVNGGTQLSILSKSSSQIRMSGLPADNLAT
# Description: (§1) A single clone of the SH-SY5Y cell line stably expressing a cAMP biosensor (SY5Y_CBS) was generated as previously described for HEK293_CBS and NS-1_CBS cells, using the retroviral vector pLHCX containing the cAMP biosensor and a hygromycin resistance gene. A HEK293_CBS_hPAC1 cell clone was generated by transducing HEK293_CBS cells with the lentiviral vector pLX304 (GeneCopoeia, Rockville, MD) encoding the human PAC1hop (PAC1; GenBank accession no. BC143679) and a blasticidin resistance gene . Following transduction, cells were selected with the appropriate antibiotics (hygromycin or blasticidin) for 2 weeks. Single-cell clones were subsequently isolated by limiting dilution and assessed for PACAP-induced cAMP production using concentration-response assays.
# (§2) The cyclic AMP biosensor (CBS) assay was performed using Gibco CO2-independent medium (ThermoFisher, catalog #18045-088). HEK293_CBS_hPAC1 or SY5Y_CBS cells were seeded in 96-well black/clear-bottom plates (MidSci, Fenton, MO) at a density of 6,000 cells per well and incubated overnight. The following day, the medium in each well was aspirated and replaced with fresh medium containing 1.5 mg/mL D-luciferin potassium salt substrate (Gold Biotechnology, St. Louis, MO) and 500 μM isobutyl-1-methylxanthine (IBMX), followed by incubation at 37 °C for 1 hour. Cells were then pre-treated with antagonists for 10 minutes before the addition of agonists (PACAP or forskolin). Plates were incubated at 37 °C for 1 hour, then brought to room temperature and equilibrated for 30 minutes. Luminescence was measured using a GloMax plate reader (Promega, Madison, WI).
# (§3) GraphPad Prism ver. 9.0 or 10.0 (GraphPad Software Inc, Boston, MA) was used for data analysis. Concentration response curves were created using a four parameter logistic regression model. EC80 and IC50 parameters were obtained using non-linear regression curve fitting tools. EC80 was calculated as the effective concentration of the agonist required to produce 80% of the maximal response. IC50 was calculated as the concentration of the antagonist that produced 50% of the response induced by an agonist (either PACAP or forskolin) in the absence of the antagonist. Seven or eight different concentrations and three technical replicates per concentration were used for curve fitting. All data are presented as mean ± standard error of the mean (SEM).
# [2] = target: T1, PAC1 (endogenous, mainly PAC1null, SH-SY5Y); experiment: Direct cAMP ELISA, antagonism of P38 in SY5Y_CBS cells; type: cell-based
# Experimental: Direct cAMP determinations were made using the DetectX® Direct Cyclic AMP Enzyme Immunoassay Kit (Arbor Assays, Ann Arbor, MI). SY5Y_CBS cells (200,000 cells per well) or HEK293_CBS cells (10,000 cells per well) were seeded into 96-well plates one day prior to the assay. These cell densities were optimized to ensure agonist responses fell within the linear range of the cAMP standard curve (0.16-10 pmol/mL cAMP). On the day of the assay, the medium was removed and replaced with fresh medium containing 500 μM IBMX. After a 20-minute incubation at 37 °C, antagonists were added and incubated for 10 minutes at 37 °C, followed by the addition of agonists for 30 minutes at 37 °C. Following the final incubation, the medium was aspirated, and cells were lysed with 200 μL of lysis buffer (provided in the kit) for 10 minutes at room temperature. Samples were then snap-frozen and stored at −80 °C overnight and thawed the next day to ensure complete cell lysis. The assay was completed by sequentially adding the cAMP peroxidase conjugate, anti-cAMP sheep antibody, substrate, and stop solution, according to the manufacturer’s instructions. Optical density was measured at 450 nm using a microplate spectrophotometer (Molecular Devices, San Jose, CA). Standard curves and data analysis were performed using GraphPad Prism with a sigmoidal four-parameter nonlinear regression model. Experiments conducted on different days with independently plated and assayed cells were considered biological replicates. Each experiment included three technical replicates.
# as §3
# [3] = target: T1, PAC1 (endogenous, mainly PAC1null, SH-SY5Y); experiment: CBS assay, antagonism of P27-induced cAMP in SY5Y_CBS cells; type: cell-based
# Description: as §1, §2
# For the high-throughput CBS screening assays, cells were plated at 2,000 (HEK293_CBS_hPAC1) or 3,000 (SY5Y_CBS) cells per well in […] of Gibco CO2-independent medium, in white 1,536-well tissue culture treated plates. After overnight incubation at 37 °C and 5% CO2, […] of luciferin/IBMX solution was added to the wells (final concentrations of 500 μM each) and plates were incubated at 37 °C for 1 hour. SMOLs (22.5 nL) were transferred to the assay plate, using a pintool device (HEK293 screen) or an ECHO acoustic liquid handler (Beckman Coulter, Brea, CA, SY5Y screen), to final concentrations (4 concentrations per compound) between 0.5 and 30 μM and cells were incubated at 37 °C for 1 hour (HEK293 screen) or 10 minutes (SY5Y screen). […] For forskolin counterscreening in SY5Y cells, forskolin instead of peptide was dispensed to the plate at a final concentration of 5 μM.
# as §3
# [4] = system: PAC1; experiment: CBS assay in NS-1 cells, endogenous PAC1; type: cell-based, rat; conditions: NS-1 cells expressing CBS, n = 3
# Experimental: Cell culture reagents were purchased from ThermoFisher Scientific (Waltham, MA) unless otherwise noted. Neuroscreen-1 (NS-1) cells (Cellomics, Halethorpe, MD) were grown on flasks or plates coated with Collagen I (rat tail) as described previously. NS-1 cells were cultured in RPMI-1640 media supplemented with 10% horse serum and 5% heat-inactivated Fetal Bovine Serum (Hyclone, Logan, UT). HEK293 and SH-SY5Y cells were purchased from ATCC (Gaithersburg, MD) and cultured with DMEM medium with 10% FBS. All cell culture medium were supplemented with 2 mM glutamine, 100 U/ml penicillin, and 100 μg/ml streptomycin.
# A single clone of the SH-SY5Y cell line stably expressing a cAMP biosensor (SY5Y_CBS) was generated as previously described for HEK293_CBS and NS-1_CBS cells, using the retroviral vector pLHCX containing the cAMP biosensor and a hygromycin resistance gene. […] Single-cell clones were subsequently isolated by limiting dilution and assessed for PACAP-induced cAMP production using concentration-response assays.
# The cyclic AMP biosensor (CBS) assay was performed using Gibco CO2-independent medium (ThermoFisher, catalog #18045-088). […] Luminescence was measured using a GloMax plate reader (Promega, Madison, WI).
# GraphPad Prism ver. […] EC80 was calculated as the effective concentration of the agonist required to produce 80% of the maximal response. […]
# [5] = system: human PAC1hop (hPAC1); experiment: cAMP biosensor (CBS) assay, agonist responses in HEK293_CBS_hPAC1; type: cell-based; conditions: HEK293_CBS_hPAC1, IBMX pretreated, luminescence
# Description: as §1, §2
# GraphPad Prism ver. 9.0 or 10.0 (GraphPad Software Inc, Boston, MA) was used for data analysis. Concentration response curves were created using a four parameter logistic regression model. EC80 and IC50 parameters were obtained using non-linear regression curve fitting tools. EC80 was calculated as the effective concentration of the agonist required to produce 80% of the maximal response. […]
# [6] = system: PAC1; conditions: ref 15 (maxadilan); cited from earlier work
# Description: Similarities include initial binding events between the C-terminal domain of the peptide with the extracellular domain (ECD) followed by insertion of the N-terminus of the peptide into the core of the receptor to enable activation, but with differences in binding poses in the C-terminus explaining in part the ligand selectivity of each receptor [13]. Empirica ...
# [7] = target: PAC1 endogenously expressed in SH-SY5Y cells (human (endogenous in SH-SY5Y)) (UniProt P41586)
# [8] = target: T1, PAC1 (endogenous, mainly PAC1null, SH-SY5Y); experiment: CBS assay, agonist potency in SY5Y_CBS cells; type: cell-based
# Description: A single clone of the SH-SY5Y cell line stably expressing a cAMP biosensor (SY5Y_CBS) was generated as previously described for HEK293_CBS and NS-1_CBS cells [30], using the retroviral vector pLHCX containing the cAMP biosensor and a hygromycin resistance gene. […] Following transduction, cells were selected with the appropriate antibiotics (hygromycin or blasticidin) for 2 weeks. Single-cell clones were subsequently isolated by limiting dilution and assessed for PACAP-induced cAMP production using concentration-response assays.
# [9] = system: HEK293_CBS cells; experiment: cAMP biosensor (CBS) assay, agonist responses in parental HEK293_CBS; type: cell-based
# [10] = target: PAC1 endogenously expressed in SH-SY5Y cells (human (endogenous in SH-SY5Y)) (UniProt P41586); remark: listed apart in the source
# [11] = 1 nM P38, average of two independent experiments, read-out: IC50 Average in ELISA assay
# [12] = 1 nM P38, range of two independent experiments, read-out: IC50 Range in ELISA assay
# [13] = 0.2 nM P38 (EC80), SY5Y_CBS, mean ± SEM, three independent experiments, Figure 11B, read-out: IC50 of P6-38 C-terminal mutants in CBS assay
molecule,measurement,setting,value
FTDSYSRYRKQMAVKKYLAAVL-NH2 [P6-27],IC50,"[1]; 0.2 nM P38 (EC80), SY5Y_CBS, three independent experiments, Figure 11B, read-out: IC50 of P6-38 C-terminal mutants in CBS assay",> 1000 nM
same,IC50,[2]; [11],3310 nM
same,IC50,[2]; [12],370 to 6250 nM
same,IC50,"[3]; IC50 against P27 (Figure 8), 0.2 nM P27, SY5Y_CBS, 3 independent experiments",~100 nM
same,IC50,"[3]; IC50 against P27, 0.2 nM P27 (EC80), mean ± SEM, n = 3, Figure 7C",200 ± 55 nM
"pituitary adenylate cyclase-activating polypeptide (PACAP) 1-38 (HSDGIFTDSYSRYRKQMAVKKYLAAVLGKRYKQRVKNK-NH2) [P38, endogenous PAC1 agonist]",activation of endogenous PAC1,[4],can be activated by P38
same,agonist response (cAMP),[5],highly responsive to P38 and P27 with similar potency and efficacy
maxadilan,activity at PAC1,[6],agonist
FTDSYSRYRKQMAVKKYLAAVLGK-NH2 [P6-29],IC50,[1]; [13],> 500 nM
same,IC50,[2]; [11],1250 nM
same,IC50,[2]; [12],350 to 2150 nM
"P27: PACAP 1-27, endogenous PAC1 agonist (HSDGIFTDSYSRYRKQMAVKKYLAAVL; ends and bridges not checked)",agonist response (cAMP),[5],highly responsive to P38 and P27 with similar potency and efficacy
PACAP(6-27) (peptide),IC50 of inhibition of P27-stimulated (0.2 nM) cAMP elevation (CBS assay) in SY5Y CBS cells; pair that is blocked: m2 + m18,[7],100 nM
same,"percent to which P38-induced (0.2 nM) cAMP elevation is blocked (CBS assay) in SY5Y CBS cells, antagonist up to 10 μM; pair that is blocked: m1 + m18",[7],50%
FTDSYSRYRKQMAVKKYLAAVLGKR-NH2 [P6-30],IC50,[1]; [13],84 ± 26 nM
same,IC50,[2]; [11],175 nM
same,IC50,[2]; [12],52 to 297 nM
"CSCC[C@H](NC(=O)[C@H](CCC(N)=O)NC(=O)[C@H](CCCCN)NC(=O)[C@H](CCCNC(=N)N)NC(=O)[C@H](Cc1ccc(O)cc1)NC(=O)[C@H](CCCNC(=N)N)NC(=O)[C@H](CO)NC(=O)[C@H](Cc1ccc(O)cc1)NC(=O)[C@H](CO)NC(=O)[C@H](CC(=O)O)NC(=O)[C@@H](NC(=O)[C@@H](N)Cc1ccccc1)[C@@H](C)O)C(=O)N[C@@H](C)C(=O)N[C@H](C(=O)N[C@@H](CCCCN)C(=O)N[C@@H](CCCCN)C(=O)N[C@@H](Cc1ccc(O)cc1)C(=O)N[C@@H](CC(C)C)C(=O)N[C@@H](C)C(=O)N[C@@H](C)C(=O)N[C@H](C(=O)N[C@@H](CC(C)C)C(=O)NCC(=O)N[C@@H](CCCCN)C(=O)N[C@@H](CCCNC(=N)N)C(=O)N[C@@H](Cc1ccc(O)cc1)C(=O)N[C@@H](CCCCN)C(=O)N[C@@H](CCC(N)=O)C(=O)N[C@@H](CCCNC(=N)N)C(=O)N[C@H](C(=O)N[C@@H](CCCCN)C(=O)N[C@@H](CC(N)=O)C(=O)N[C@@H](CCCCN)C(N)=O)C(C)C)C(C)C)C(C)C [P6-38, reference compound]",IC50,[1]; [13],117 ± 19 nM
same,IC50,"[1]; IC50 against P38 (Figure 9C), 0.2 nM P38, CBS assay, mean ± SEM, three independent experiments",52 ± 13 nM
same,IC50,"[1]; IC50 against P38 (estimated from Figure 5B), 0.2 nM P38 (EC80), SY5Y_CBS, CBS assay",~100 nM
same,IC50,[2]; [11],114 nM
same,IC50,[2]; [12],86 to 142 nM
same,IC50,"[3]; IC50 against P27 (estimated from Figure 5B), 0.2 nM P27 (EC80), SY5Y_CBS",~20 nM
vasoactive intestinal peptide [VIP],agonist response (cAMP),[5],"highly specific for activation by PACAP, compared to the related peptide VIP"
same,agonist response / relative agonist potency,[8],VIP is a less potent agonist
same,potency relative to P27 and P38 (times less potent),[8],about 100 times
same,EC80 (approximate),[8]; Figure 5A,~ 20 nM
same,EC80,"[8]; mean ± SEM, n = 3",20 ± 6.2 nM
same,Hill Slope,"[8]; mean ± SEM, n = 3",1.78 ± 0.35
same,relative potency of PACAP and VIP,[9],the potency of PACAP was similar to VIP
same,response relative to HEK293_CBS_hPAC1 level,"[9]; IBMX pretreated, luminescence",less than 5%
PACAP(6-38) (peptide),IC50 of inhibition of P27-induced cAMP elevation (CBS assay) in SY5Y CBS cells; pair that is blocked: m2 + m18,[10],20 nM
same,IC50 of inhibition of P38-induced cAMP elevation (CBS assay) in SY5Y CBS cells; pair that is blocked: m1 + m18,[10],100 nM
pituitary adenylate cyclase-activating polypeptide (PACAP) 1-27 (from UniProt P18509 132-158),EC80 of cAMP elevation (CBS assay) in SY5Y CBS cells,[10],0.2 nM
HSDAVFTDNYTRLRKQMAVKKYLNSILN [vasoactive intestinal peptide],EC80 of cAMP elevation (CBS assay) in SY5Y CBS cells,[10],20 nM
